Laboratory results: patent publication US20180099931A1 (AbbVie S.à.r.l., priority 2016, published 2018)
Where two headings read alike, the source gives them in different places.

Biological target: T1, F508delCFTR (Homo sapiens, UniProt P13569, DEL508-508)
T1 construct: expressed in transfected cells; host or cells: CFBE41o- human lung-derived epithelial cells (CFBE4lo-F508delCFTR-HRP), doxycycline-inducible
Experiment: Cell Surface Expression-Horse Radish Peroxidase (CSE-HRP) Assay;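 for Maximum % activity (with co-corrector): co-corrector and positive control are both the same reference corrector at 2 µM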;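 for Maximum % activity (without co-corrector): percent of the 2 µM on-plate positive control corrector response above DMSO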
Format: cell-based
Conditions: for Maximum % activity (with co-corrector) / Emax: maximum at any tested concentration, normalized to on-plate positive control; for Emax: read-out: Maximum % activity (without co-corrector)

[1] = test compound without co-corrector, read-out: EC50 (without co-corrector)
[2] = with co-corrector (2 μM of 3-[(2R,4R)-4-({[1-(2,2-difluoro-1,3-benzodioxol-5-yl)cyclopropyl]carbonyl}amino)-7-methoxy-3,4-dihydro-2H-chromen-2-yl]benzoic acid), read-out: EC50 (with co-corrector)
[3] = test compound without co-corrector
[4] = with co-corrector (2 μM of 3-[(2R,4R)-4-({[1-(2,2-difluoro-1,3-benzodioxol-5-yl)cyclopropyl]carbonyl}amino)-7-methoxy-3,4-dihydro-2H-chromen-2-yl]benzoic acid)
[5] = CSE-HRP, test compound without co-corrector, read-out: EC50 (without co-corrector)
[6] = CSE-HRP, with co-corrector (2 μM of 3-[(2R,4R)-4-({[1-(2,2-difluoro-1,3-benzodioxol-5-yl)cyclopropyl]carbonyl}amino)-7-methoxy-3,4-dihydro-2H-chromen-2-yl]benzoic acid), read-out: EC50 (with co-corrector)
[7] = CSE-HRP, with co-corrector (2 μM)

T1 sequence (P13569 with tags, fused parts or gaps DEL508-508): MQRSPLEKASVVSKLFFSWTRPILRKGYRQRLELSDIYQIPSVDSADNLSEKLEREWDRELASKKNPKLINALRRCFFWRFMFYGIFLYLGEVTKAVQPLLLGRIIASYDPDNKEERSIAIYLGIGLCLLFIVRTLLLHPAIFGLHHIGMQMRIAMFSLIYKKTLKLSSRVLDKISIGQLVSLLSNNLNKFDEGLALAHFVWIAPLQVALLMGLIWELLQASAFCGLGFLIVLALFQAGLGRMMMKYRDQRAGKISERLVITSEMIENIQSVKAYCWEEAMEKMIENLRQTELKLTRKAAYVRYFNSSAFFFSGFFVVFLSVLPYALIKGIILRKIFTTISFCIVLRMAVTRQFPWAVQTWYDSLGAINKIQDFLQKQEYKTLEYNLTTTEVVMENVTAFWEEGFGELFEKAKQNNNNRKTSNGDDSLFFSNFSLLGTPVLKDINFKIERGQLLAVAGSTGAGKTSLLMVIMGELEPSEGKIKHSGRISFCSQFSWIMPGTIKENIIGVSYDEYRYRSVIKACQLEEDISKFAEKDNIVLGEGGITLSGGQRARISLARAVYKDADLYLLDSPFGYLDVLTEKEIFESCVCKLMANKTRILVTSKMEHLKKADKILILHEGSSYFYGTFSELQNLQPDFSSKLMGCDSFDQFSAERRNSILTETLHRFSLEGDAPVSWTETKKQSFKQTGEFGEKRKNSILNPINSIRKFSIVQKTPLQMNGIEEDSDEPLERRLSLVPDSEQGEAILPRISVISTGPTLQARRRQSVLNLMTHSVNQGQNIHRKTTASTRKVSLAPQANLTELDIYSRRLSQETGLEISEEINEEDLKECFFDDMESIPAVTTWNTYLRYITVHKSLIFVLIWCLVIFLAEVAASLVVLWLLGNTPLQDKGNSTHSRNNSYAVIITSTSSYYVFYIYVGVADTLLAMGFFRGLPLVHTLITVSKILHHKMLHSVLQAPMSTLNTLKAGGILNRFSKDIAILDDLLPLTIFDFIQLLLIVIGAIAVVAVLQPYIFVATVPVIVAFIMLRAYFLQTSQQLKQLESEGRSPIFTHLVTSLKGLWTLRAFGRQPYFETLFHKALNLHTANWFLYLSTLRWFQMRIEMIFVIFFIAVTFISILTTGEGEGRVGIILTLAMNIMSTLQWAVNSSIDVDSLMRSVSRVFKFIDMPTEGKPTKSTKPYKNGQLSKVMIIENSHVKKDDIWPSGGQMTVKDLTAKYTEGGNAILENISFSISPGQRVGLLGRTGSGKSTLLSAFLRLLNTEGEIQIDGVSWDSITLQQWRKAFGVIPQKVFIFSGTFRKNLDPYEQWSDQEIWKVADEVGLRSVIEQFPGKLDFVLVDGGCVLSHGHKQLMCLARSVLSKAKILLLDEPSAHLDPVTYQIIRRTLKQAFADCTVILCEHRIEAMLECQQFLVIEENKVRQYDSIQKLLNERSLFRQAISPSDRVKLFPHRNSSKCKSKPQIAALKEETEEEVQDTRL

SMILES | EC50 [1] | EC50 [2] | Maximum % activity (with co-corrector) (with co-corrector (2 μM)) | Emax (without co-corrector) | Emax [3] | Maximum % activity (with co-corrector) [4] | EC50 [5] | EC50 [6] | Maximum % activity (with co-corrector) [7] | Emax (CSE-HRP, without co-corrector)
COc1ccc(C(C)(C)C)cc1CN[C@H]1[C@H](C(C)(C)C)[C@@H](C(=O)O)N(C(=O)[C@@H]2CCCO2)[C@H]1c1ccccc1 [Example 34, (2S,3S,4S,5S)-3-tert-butyl-4-{[(5-tert-butyl-2-methoxyphenyl)methyl]amino}-1-[(2S)-oxolane-2-carbonyl]-5-phenylpyrrolidine-2-carboxylic acid] | 1000 to 10000 nM | 1000 to 10000 nM | +++ (≥350) | > 200% |  |  |  |  |  | 
Cc1ccccc1CN[C@@H]1[C@@H](C(C)(C)C)[C@H](C(=O)O)N(C(=O)CC2CCCC2)[C@@H]1c1ccccc1 (racemic) [III-2] | > 10000 nM | 1000 to 10000 nM |  |  | < 100% | ++ (≥150 and <350) |  |  |  | 
COc1ccc(C(F)(F)F)cc1CN[C@H]1[C@H](C(C)(C)C)[C@@H](C(=O)O)N(C(=O)C2CCC(C(F)(F)F)C2)[C@H]1c1ccccc1 (stereo partly shown) [Example I-163] | 1000 to 10000 nM | 1000 to 10000 nM | +++ (≥350) | 100 to 200% |  |  |  |  |  | 
COc1ncc(C2CCC2)cc1CN[C@H]1[C@H](C(C)(C)C)[C@@H](C(=O)O)N(C(=O)c2ccc3c(c2)OCCO3)[C@H]1c1ccccc1 [II-475] | 1000 to 10000 nM | 1000 to 10000 nM |  |  | < 100% | ++ (≥150 and <350) |  |  |  | 
COc1ncc(C(F)(F)F)cc1CN[C@H]1[C@H](C(C)(C)C)[C@@H](C(=O)O)N(C(=O)C2CCCCC2)[C@H]1c1ccccc1C(C)C [II-545] | 1000 to 10000 nM | 1000 to 10000 nM |  |  | > 200% | +++ (≥350) |  |  |  | 
COc1ccc(C(C)(C)C)cc1CN[C@H]1[C@H](C(C)(C)C)[C@@H](C(=O)O)N(C(=O)Cc2cccc(O)c2)[C@H]1c1ccccc1 [II-196] |  |  |  |  |  |  | 1000 to 10000 nM | 1000 to 10000 nM | +++ (≥350) | > 200%
COCCn1ccnc1CN[C@@H]1[C@@H](C(C)(C)C)[C@H](C(=O)O)N(C(=O)C2CCCCC2)[C@@H]1c1ccccc1 (racemic) [III-24] | > 10000 nM | > 10000 nM |  |  | < 100% | + (<150) |  |  |  | 
COc1ccc(Cl)cc1CN[C@@H]1[C@@H](C(C)(C)C)[C@H](C(=O)O)N(C(=O)C2CCCCC2)[C@@H]1c1ccccc1 (racemic) [III-27] | 1000 to 10000 nM | 1000 to 10000 nM |  |  | > 200% | +++ (≥350) |  |  |  | 
COc1ccc(C(C)(C)C)cc1CN[C@H]1[C@H](C(C)(C)C)[C@@H](C(=O)O)N(C(=O)C2CCc3ccccc3O2)[C@H]1c1ccccc1 (single isomer, unassigned) [Example I-83] | 1000 to 10000 nM | 1000 to 10000 nM | +++ (≥350) | 100 to 200% |  |  |  |  |  | 
COc1cccc([C@@H]2[C@H](NCc3ccc(Cl)cc3OC)[C@@H](C(C)(C)C)[C@H](C(=O)O)N2C(=O)C2CCCCC2)n1 (racemic) [III-67] | 1000 to 10000 nM | 1000 to 10000 nM |  |  | 100 to 200% | +++ (≥350) |  |  |  | 
COc1ccc(C(C)(C)C)cc1CN[C@H]1[C@H](C(C)(C)C)[C@@H](C(=O)O)N(C(=O)OC2COC2)[C@H]1c1ccccc1 [Example I-244, (2S,3S,4S,5S)-3-tert-butyl-4-{[(5-tert-butyl-2-methoxyphenyl)methyl]amino}-1-{[(oxetan-3-yl)oxy]carbonyl}-5-phenylpyrrolidine-2-carboxylic acid] | 1000 to 10000 nM | 1000 to 10000 nM | +++ (≥350) | 100 to 200% |  |  |  |  |  | 
COc1ccc(C(C)(C)C)cc1CN[C@H]1[C@H](C(C)(C)C)[C@@H](C(=O)O)N(C(=O)C(C)Oc2cc(C)cc(C)c2)[C@H]1c1ccccc1 (stereo partly shown) [III-190] | 1000 to 10000 nM | < 1000 nM | +++ (≥350) |  | > 200% |  |  |  |  | 
COc1ccc(C(C)(C)C)cc1CN[C@H]1[C@H](C(C)(C)C)[C@@H](C(=O)O)N(C(=O)C(OC)c2ccc(F)c(F)c2)[C@H]1c1ccccc1 (relative stereo) [Example I-159] | < 1000 nM | < 1000 nM | +++ (≥350) | > 200% |  |  |  |  |  | 
COc1ccc(C(C)(C)C)cc1CN[C@H]1[C@H](C(C)(C)C)[C@@H](C(=O)O)N(C(=O)C2(c3ccccn3)CC2)[C@H]1c1ccccc1 [II-189] |  |  |  |  |  |  | 1000 to 10000 nM | 1000 to 10000 nM | +++ (≥350) | > 200%
COc1ccc(C(C)(C)C)cc1CN[C@H]1[C@H](C(C)(C)C)[C@@H](C(=O)O)N(C(=O)c2cn(C)c3ccccc23)[C@H]1c1ccccc1 [III-177] | 1000 to 10000 nM | 1000 to 10000 nM | ++ (≥150 and <350) |  | < 100% |  |  |  |  | 
O=C(O)[C@@H]1N(C(=O)C2CCCCC2)[C@H](c2ccccc2)[C@H](NCc2ccccc2OC(F)F)C12CC2 (racemic) [III-57] | > 10000 nM | 1000 to 10000 nM |  |  | < 100% | ++ (≥150 and <350) |  |  |  | 
COc1ccc(C(C)(C)C)cc1CN[C@H]1[C@H](C(C)(C)C)[C@@H](C(=O)O)N(C(=O)C2CCC(O)(C(F)(F)F)CC2)[C@H]1c1cccnc1N(C)C (stereo partly shown) [II-463] | 1000 to 10000 nM | 1000 to 10000 nM |  |  | 100 to 200% | +++ (≥350) |  |  |  | 
COc1ccc(S(F)(F)(F)(F)F)cc1CN[C@H]1[C@H](C(C)(C)C)[C@@H](C(=O)O)N(C(=O)OC(C)C)[C@H]1c1cccnc1N(C)C [Example I-245] | 1000 to 10000 nM | 1000 to 10000 nM | +++ (≥350) | > 200% |  |  |  |  |  | 
COc1ccc(C(C)(C)C)cc1CN[C@H]1[C@H](C(C)(C)C)[C@@H](C(=O)O)N(C(=O)C2CCCC(F)(F)C2)[C@H]1c1cccnc1N(C)C (single isomer, unassigned) [Example 42, (2S,3S,4S,5S)-3-tert-butyl-4-{[(5-tert-butyl-2-methoxyphenyl)methyl]amino}-1-[(1R*)-3,3-difluorocyclohexane-1-carbonyl]-5-[2-(dimethylamino)pyridin-3-yl]pyrrolidine-2-carboxylic acid] | < 1000 nM | < 1000 nM | +++ (≥350) | > 200% |  |  |  |  |  | 
COc1cc(C(F)(F)F)ccc1CN[C@@H]1[C@@H](C(C)(C)C)[C@H](C(=O)O)N(C(=O)[C@H]2CCCCO2)[C@@H]1c1ccccc1 [III-117] | > 10000 nM | 1000 to 10000 nM | ++ (≥150 and <350) |  | < 100% |  |  |  |  | 
COc1ccc(C2(C(F)(F)F)CC2)cc1CN[C@H]1[C@H](C(C)(C)C)[C@@H](C(=O)O)N(C(=O)OC(C)C)[C@H]1c1cccnc1N(C)C [II-559] | 1000 to 10000 nM | 1000 to 10000 nM |  |  | > 200% | +++ (≥350) |  |  |  | 
CCOc1ccc(Cl)cc1CN[C@@H]1[C@@H](C(C)(C)C)[C@H](C(=O)O)N(C(=O)C2CCCCC2)[C@@H]1c1ccccc1 (racemic) [II-9] |  |  |  |  |  |  | 1000 to 10000 nM | 1000 to 10000 nM | +++ (≥350) | < 100%
COc1ccc(F)cc1CN[C@@H]1[C@@H](C(C)(C)C)[C@H](C(=O)O)N(C(=O)OC(C)C)[C@@H]1c1ccccc1 (racemic) [II-42] |  |  |  |  |  |  | 1000 to 10000 nM | 1000 to 10000 nM | +++ (≥350) | 100 to 200%
COc1nc(C(C)(C)C)ccc1CN[C@H]1[C@H](C(C)(C)C)[C@@H](C(=O)O)N(C(=O)C2CCC(C)(C)C2)[C@H]1c1ccccc1 (stereo partly shown) [II-428] | 1000 to 10000 nM | 1000 to 10000 nM |  |  | 100 to 200% | +++ (≥350) |  |  |  | 
COc1nc(C(C)(C)C)ccc1CN[C@H]1[C@H](C(C)(C)C)[C@@H](C(=O)O)N(C(=O)[C@@H]2CCCCO2)[C@H]1c1cccnc1N(C)C [Example I-235] | 1000 to 10000 nM | < 1000 nM | +++ (≥350) | 100 to 200% |  |  |  |  |  | 
COc1ccc(C(C)(C)C)cc1CN[C@H]1[C@H](C(C)(C)C)[C@@H](C(=O)NS(C)(=O)=O)N(C(=O)C2CCCCC2)[C@H]1c1ccccc1 [Example 58, (2S,3S,4S,5S)-3-tert-butyl-4-{[(5-tert-butyl-2-methoxyphenyl)methyl]amino}-1-(cyclohexanecarbonyl)-N-(methanesulfonyl)-5-phenylpyrrolidine-2-carboxamide] | 1000 to 10000 nM | 1000 to 10000 nM | ++ (≥150 and <350) | < 100% |  |  |  |  |  | 
COc1ccc(C2CCC2)cc1CN[C@H]1[C@H](C(C)(C)OC)[C@@H](C(=O)O)N(C(=O)C2CCCCC2)[C@H]1c1ccccc1 [II-255] |  |  |  |  |  |  | < 1000 nM | < 1000 nM | +++ (≥350) | > 200%
COc1cccc([C@H]2[C@@H](NCc3cc(C(F)(F)F)ccc3OC)[C@H](C(C)(C)C)[C@@H](C(=O)O)N2C(=O)C2(C)CCCOC2)n1 (relative stereo) [III-70] | > 10000 nM | 1000 to 10000 nM |  |  | < 100% | ++ (≥150 and <350) |  |  |  | 
